Values of other authors as cited in patent publication US20020127223A1, “Method for reducing side effects of a drug” (priority 1984, published 2002).

Conditions: administered 3 hours following methotrexate

Nc1nc(=O)c2c([nH]1)NCC(CNc1ccc(C(=O)N[C@@H](CCC(=O)O)C(=O)O)cc1)N2C=O (mixture of isomers) [folinic acid]
Attenuation of the toxic effects of methotrexate: attenuate the toxic effects of methotrexate
